Measurements reported in patent US20090203716A1, “Pyrimidine low molecular weight ligands for modulating hormone receptors” (The Government of the United States of America as …, priority 2006, published 2009).

How the values were obtained:
TSHR mutant M9 = experiment: cAMP production in HEK-EM 293 cells transiently expressing TSHR mutant M9; type: cell-based, human; details: 30 μM compound
Procedure: (§1) HEK-EM 293 cells were grown in Dulbecco's modified Eagle's Medium (DMEM) supplemented with 10% fetal bovine serum, 100 units/ml penicillin and 10 μg/ml streptomycin (Life Technologies Inc.) at 37° C. in a humidified 5% CO2 incubator. Cells were transiently transfected with wild type TSHR and mutant receptors in 24-well plates (7.5×10^4 cells per well) with 0.4 μg DNA/well using FuGENE™ 6 reagent (Roche) according to the manufacturer's protocol.
(§2) The M9 mutant is described in Jaschke et al., J Biol Chem 281:9841-9844. The Y7.42A mutant was introduced into hTSHR-pcDNA3.1 via the QuickChange XL Site-Directed Mutagenesis kit (Stratagene). The construct was verified by sequencing (MWG Biotech).
(§3) Transiently transfected cells were cultured for 48 hours before the cAMP assay. HEK-EM 293 cells stably expressing TSHR, LHCGR or FSHR were seeded into 24-well plates with a density of 2.2×10^5 cells/well 24 hours before the cAMP assay. […] The intracellular cAMP content was determined with the cAMP Biotrak Enzymeimmunoassay (EIA) System (GE Healthcare). Data were analyzed using GraphPad Prism 4 for Windows. Receptor expression was measured as described in Jaschke et al., J Biol Chem 281:9841-9844.

TSHR [1] = target: T1, TSHR (Homo sapiens, UniProt P16473); experiment: competition with 125I-labeled TSH for binding to TSHR
T1 sequence (P16473 21-764): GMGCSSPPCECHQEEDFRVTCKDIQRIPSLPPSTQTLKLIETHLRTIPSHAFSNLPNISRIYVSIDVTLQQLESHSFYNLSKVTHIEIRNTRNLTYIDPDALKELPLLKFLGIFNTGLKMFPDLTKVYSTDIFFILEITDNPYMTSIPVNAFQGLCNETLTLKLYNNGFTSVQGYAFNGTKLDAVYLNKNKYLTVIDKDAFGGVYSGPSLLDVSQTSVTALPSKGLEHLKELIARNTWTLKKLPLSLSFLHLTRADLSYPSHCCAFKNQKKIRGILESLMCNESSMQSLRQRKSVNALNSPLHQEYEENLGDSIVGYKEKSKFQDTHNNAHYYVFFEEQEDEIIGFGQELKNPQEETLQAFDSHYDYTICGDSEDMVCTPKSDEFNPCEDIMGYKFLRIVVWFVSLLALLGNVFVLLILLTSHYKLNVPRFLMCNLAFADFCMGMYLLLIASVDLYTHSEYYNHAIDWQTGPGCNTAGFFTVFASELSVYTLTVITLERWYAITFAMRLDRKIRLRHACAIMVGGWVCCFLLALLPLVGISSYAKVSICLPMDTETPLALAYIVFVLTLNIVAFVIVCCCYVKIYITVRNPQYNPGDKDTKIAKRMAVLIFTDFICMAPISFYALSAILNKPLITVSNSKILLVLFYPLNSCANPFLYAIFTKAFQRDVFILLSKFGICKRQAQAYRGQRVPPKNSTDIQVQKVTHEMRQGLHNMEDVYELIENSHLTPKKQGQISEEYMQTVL

TSHR mutant Y7.42A = target: T2, TSHR mutant Y7.42A (Homo sapiens, UniProt P16473, Y667A); experiment: cAMP production in HEK-EM 293 cells transiently expressing TSHR mutant Y7.42A; type: cell-based; details: 30 μM compound
T2 construct: expressed in transfected cells; host or cells: HEK-EM 293 (transient, FuGENE 6)
T2 sequence (P16473 21-764 Y667A): as the sequence (P16473 21-764) above, with Y647A counted along it
Procedure: as §1, §2, §3

human TSH receptor = target: T3, human TSH receptor (Homo sapiens, UniProt P16473); experiment: intracellular cAMP accumulation, agonism at TSHR stably expressed in HEK EM 293 cells; type: cell-based; details: cAMP
T3 construct: expressed in transfected cells
T3 sequence (P16473 21-764): as the sequence (P16473 21-764) above
Procedure: With reference to Table 1, exemplary disclosed compounds were evaluated against human TSH receptor and human LHCG receptor that were stably expressed in HEK 293 EM cells as previously described by Libert et al. (Biochem. Biophys. Res. Commun. 1989, 165, 1250-1255); and by Schulz et al. (Mol. Endocrinol. 1999, 13, 181-190). Cell surface expression of TSH receptor and LHCG receptor were determined via FACS analysis (Kleinau, G.; Jäschke, H.; Neumann, S.; Lättig, S.; Paschke, R.; Krause, G. J. Biol. Chem. 2004, 279, 51590-51600). Agonism of compounds 3-20 were determined via measurement of intracellular cyclic AMP accumulation. […] For example, […] certain compounds disclosed herein exerted no discernible effect on the FSH receptor.
Cells were cultured for 48 h in 24-well plates before incubation for 1 h in serum-free DMEM containing 1 mM 3-isobutyl-1-methylxanthine (IBMX) (SIGMA) and bovine TSH (1.8 μM) (SIGMA) or human LH (1000 ng/ml) (Dr. A. Parlow, NIDDK National Hormone and Pituitary Program) or compounds 3-19 (0-100 μM) in a humidified 5% CO2 incubator. Following aspiration of the medium after incubation with compounds, cells were lysed using lysis buffer 1 of the cAMP Biotrak Enzymeimmunoassay (EIA) System (Amersham Biosciences). The cAMP content of the cell lysate was determined using the manufacturer's protocol. The efficacy of receptor activation by small molecule modulators is expressed as % of maximum response of LHCG receptor or TSH receptor to LH or TSH, respectively. The potency (EC50) was obtained from dose response curves (0-100 μM compound) by data analysis with GraphPad Prism 4 for Windows. With reference to FIG. 1, intracellular cAMP production was determined in response to 100 μM of each compound and is expressed as % of maximum response of TSHR/LHCGR to TSH (100 mU/ml)/LH (1000 ng/ml). The data are presented as mean±SEM of two independent experiments, each performed in duplicate.
(§4) Transiently transfected cells were cultured for 48 hours before the cAMP assay. HEK-EM 293 cells stably expressing TSHR, LHCGR or FSHR were seeded into 24-well plates with a density of 2.2×10^5 cells/well 24 hours before the cAMP assay. After removal of growth medium, cells were incubated for 1 hour in HBSS (Cellgro) with 10 mM HEPES (Cellgro) containing 1 mM 3-isobutyl-1-methylxanthine (IBMX) (Sigma) and the ligand of interest in a humidified 5% CO2 incubator at 37° C. The intracellular cAMP content was determined with the cAMP Biotrak Enzymeimmunoassay (EIA) System (GE Healthcare). Data were analyzed using GraphPad Prism 4 for Windows. Receptor expression was measured as described in Jaschke et al., J Biol Chem 281:9841-9844.

TSHR [2] = target: T1, TSHR; experiment: inhibition of TSH-mediated cAMP response in HEK-EM 293 cells stably expressing TSHR; type: cell-based; parameters: expressed in transfected cells
Procedure: as §4
The TSH-mediated cAMP response of TSHR was inhibited by a maximum of 70.8±5.5% at 30 μM compound 52. […] Compound 52 has no activity at FSHR.
To exclude the possibility that compound 52 might be acting independently of TSHR by building aggregates with TSH, thereby inhibiting the TSH-induced response, tests were conducted for a possible aggregation between these two ligands. Compound 52 and TSH were preincubated for up to 15 minutes before addition to HEK-EM 293 cells stably expressing TSHR. […] There was no difference in the antagonistic effect whether TSH and compound 52 were preincubated together or not (data not shown) thereby excluding the possibility that its effect was caused by aggregation with TSH.

competition with 125I-labeled TSH for binding to TSHR (TSHR [1]): does not compete
cAMP production, fold over TSHR basal activity, Y7.42A (TSHR mutant Y7.42A): 3.2±0.9 fold
agonist activity at TSHR (human TSH receptor): no agonist activity
antagonistic activity at TSHR in cAMP assay (TSHR [2]): antagonist
selectivity toward TSHR compared to LHCGR and FSHR (TSHR [2]): selective toward TSHR
antagonistic effect with or without preincubation with TSH (aggregation test) (TSHR [2]; 30 μM compound, 1.8 nM TSH, preincubated up to 15 minutes): no difference
inhibition at 30 µM (TSHR [2]; HEK-EM293, read-out: maximum inhibition of TSH-mediated cAMP response of TSHR): 70.8 ± 5.5%
IC50 (TSHR [2]; with EC50 dose of TSH): 4.2 µM
SMILES: COC/C=C/c1ccc(-c2nc(SC)nc3sc(C(=O)NC(C)(C)C)c(N)c23)cc1 [Compound 52]
cAMP production, fold over TSHR basal activity, M9 (TSHR mutant M9): 13.2±1.7 fold
